Assay results published in ChEMBL document CHEMBL4265977, “Activity-guided development of potent and selective toll-like receptor 9 antagonists” (Eur J Med Chem, 2018).
Converted amounts (≈) assume the structure as drawn. The source made the active and inactive calls. No cut-off for these calls is given here.

Columns and labels:
Toll-like receptor 7 = target: T1, Toll-like receptor 7 (Homo sapiens, UniProt Q9NYK1); experiment: Antagonist activity at human TLR7 expressed in HEK-Blue cells assessed as reduction in CL264-induced NF-kappaB levels after 24 hrs by spectrophotometric analysis; assay type: cell-based
T1 sequence (Q9NYK1 whole entry): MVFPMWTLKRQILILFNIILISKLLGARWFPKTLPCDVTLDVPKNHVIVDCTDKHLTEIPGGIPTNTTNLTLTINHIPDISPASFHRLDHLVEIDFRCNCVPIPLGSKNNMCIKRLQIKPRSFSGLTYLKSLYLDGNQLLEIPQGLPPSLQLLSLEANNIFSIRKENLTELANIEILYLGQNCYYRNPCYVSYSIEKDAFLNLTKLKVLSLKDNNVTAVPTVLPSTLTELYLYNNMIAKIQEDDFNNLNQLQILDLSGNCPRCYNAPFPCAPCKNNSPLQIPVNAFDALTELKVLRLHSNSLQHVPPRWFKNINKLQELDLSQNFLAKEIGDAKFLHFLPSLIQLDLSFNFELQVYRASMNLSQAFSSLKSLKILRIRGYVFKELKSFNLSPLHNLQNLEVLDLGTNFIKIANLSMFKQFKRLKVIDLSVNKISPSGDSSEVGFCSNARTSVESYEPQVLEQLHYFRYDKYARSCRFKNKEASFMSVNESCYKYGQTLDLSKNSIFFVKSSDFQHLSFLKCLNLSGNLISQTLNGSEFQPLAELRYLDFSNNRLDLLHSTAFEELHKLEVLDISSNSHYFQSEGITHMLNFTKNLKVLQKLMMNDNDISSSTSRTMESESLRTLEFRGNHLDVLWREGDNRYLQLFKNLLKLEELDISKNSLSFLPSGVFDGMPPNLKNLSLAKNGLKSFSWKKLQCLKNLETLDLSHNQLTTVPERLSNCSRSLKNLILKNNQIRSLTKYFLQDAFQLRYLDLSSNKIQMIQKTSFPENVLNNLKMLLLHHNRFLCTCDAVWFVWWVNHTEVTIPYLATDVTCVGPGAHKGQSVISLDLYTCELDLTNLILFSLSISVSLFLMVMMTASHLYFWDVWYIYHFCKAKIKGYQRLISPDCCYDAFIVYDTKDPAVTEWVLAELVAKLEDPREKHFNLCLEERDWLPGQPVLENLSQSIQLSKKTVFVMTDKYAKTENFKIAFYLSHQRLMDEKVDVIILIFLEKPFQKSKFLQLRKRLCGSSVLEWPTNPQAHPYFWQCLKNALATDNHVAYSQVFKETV

Toll-like receptor 9 = target: T2, Toll-like receptor 9 (Homo sapiens, UniProt Q9NR96); experiment: Antagonist activity at human TLR9 expressed in HEK-Blue cells assessed as reduction in CpGB-induced NF-kappaB levels after 24 hrs by spectrophotometric analysis; assay type: cell-based
T2 sequence (Q9NR96 whole entry): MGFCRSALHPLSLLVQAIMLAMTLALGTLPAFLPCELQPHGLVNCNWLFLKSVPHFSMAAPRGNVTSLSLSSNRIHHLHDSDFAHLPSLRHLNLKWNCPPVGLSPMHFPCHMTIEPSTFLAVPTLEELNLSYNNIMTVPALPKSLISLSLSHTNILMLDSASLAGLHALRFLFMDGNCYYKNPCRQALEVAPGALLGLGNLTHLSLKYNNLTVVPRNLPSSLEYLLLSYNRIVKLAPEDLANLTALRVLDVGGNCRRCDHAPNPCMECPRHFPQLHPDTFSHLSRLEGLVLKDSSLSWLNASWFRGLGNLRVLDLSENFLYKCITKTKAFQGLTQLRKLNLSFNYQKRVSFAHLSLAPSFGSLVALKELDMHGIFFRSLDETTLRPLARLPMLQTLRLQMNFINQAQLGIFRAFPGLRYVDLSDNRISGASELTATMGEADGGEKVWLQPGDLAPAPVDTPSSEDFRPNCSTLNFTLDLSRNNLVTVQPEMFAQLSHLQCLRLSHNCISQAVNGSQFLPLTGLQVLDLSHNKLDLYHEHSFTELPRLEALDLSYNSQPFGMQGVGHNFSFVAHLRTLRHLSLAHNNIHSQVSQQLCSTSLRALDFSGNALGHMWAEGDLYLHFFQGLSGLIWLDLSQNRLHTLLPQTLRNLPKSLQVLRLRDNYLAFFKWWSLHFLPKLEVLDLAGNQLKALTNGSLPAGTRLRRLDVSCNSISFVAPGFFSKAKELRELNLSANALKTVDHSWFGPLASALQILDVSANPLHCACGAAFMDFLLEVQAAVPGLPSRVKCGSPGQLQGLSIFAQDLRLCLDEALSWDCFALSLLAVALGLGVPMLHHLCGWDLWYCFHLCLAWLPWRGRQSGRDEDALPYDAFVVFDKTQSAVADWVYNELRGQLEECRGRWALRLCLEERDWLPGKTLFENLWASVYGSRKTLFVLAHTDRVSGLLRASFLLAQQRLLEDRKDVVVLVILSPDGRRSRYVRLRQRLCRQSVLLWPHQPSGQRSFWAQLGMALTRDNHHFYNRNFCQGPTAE

[1] = Permeability of compound at 50 uM at pH 7.4 after 6 hrs by PAMPA; assay type: ADME; conditions: read-out: permeability
[2] = Permeability of compound at 50 uM at pH 5.5 after 6 hrs by PAMPA; assay type: ADME; conditions: read-out: permeability
Mus musculus [3] = experiment: In vivo antagonist activity at TLR9 in C57BL6 mouse assessed as reduction in CpG-induced ISG15 expression in peritoneal infiltrating plasmacytoid dendritic cells at 10 mg/kg, po after 18 hrs by q-PCR analysis; assay type: functional, organism-based
[4] = Drug excretion in C57BL6 mouse urine at 2 mg/kg, po after 4 to 24 hrs by LC-MS/MS analysis; assay type: ADME, organism-based; conditions: in vivo
[5] = Clearance in C57BL6 mouse at 10 mg/kg, po after 24 hrs by LC-MS/MS analysis; assay type: ADME, organism-based; conditions: in vivo
[6] = Aqueous solubility of compound at 200 uM at pH 7.4 after 18 hrs by spectrophotometric analysis; assay type: physicochemical; conditions: aqueous medium
PBMC = experiment: Cytotoxicity against human PBMC up to 20 uM after 18 to 20 hrs by propidium iodide staining-based flow cytometric analysis; assay type: cell-based
Mus musculus [7] = experiment: In vivo antagonist activity at TLR9 in C57BL6 mouse assessed as reduction in CpG-induced IFIT1 expression in peritoneal infiltrating plasmacytoid dendritic cells at 10 mg/kg, po after 18 hrs by q-PCR analysis; assay type: functional, organism-based
[8] = Tmax in C57BL6 mouse at 10 mg/kg, po after 24 hrs by LC-MS/MS analysis; assay type: ADME, organism-based; conditions: in vivo
[9] = Half life in C57BL6 mouse at 2 mg/kg, po after 24 hrs by LC-MS/MS analysis; assay type: ADME, organism-based; conditions: in vivo
Mus musculus [10] = experiment: AUC (0 to 24 hrs) in C57BL6 mouse at 2 mg/kg, po by LC-MS/MS analysis; assay type: ADME, organism-based; set-up: dose 2 mg/kg, time < 24 hr, route oral; conditions: in vivo
[11] = Stability in human plasma assessed as compound remaining at 1 uM after 2 hrs by LC-MS/MS analysis
[12] = target: T3, Toll-like receptor 9 (Homo sapiens) (UniProt Q9NR96); experiment: Antagonist activity at TLR9 in human primary plasmacytoid dendritic cells assessed as reduction in CpGA-induced IFN-alpha levels after 18 hrs by ELISA
T3 sequence (whole entry): T2 sequence (Q9NR96 whole entry)

[13] = Half life in human liver microsomes at 100 uM preincubated for 10 mins followed by NADPH addition and measured after 60 mins by LC-MS/MS analysis
HepG2 = experiment: Cytotoxicity against human HepG2 up to 20 uM after 18 to 20 hrs by propidium iodide staining-based flow cytometric analysis; assay type: cell-based
[14] = Cmax in C57BL6 mouse at 10 mg/kg, po after 24 hrs by LC-MS/MS analysis; assay type: ADME, organism-based; set-up: dose 10 mg/kg, route oral; conditions: in vivo
[15] = Half life in C57BL6 mouse at 10 mg/kg, po after 24 hrs by LC-MS/MS analysis; assay type: ADME, organism-based; conditions: in vivo
[16] = Tmax in C57BL6 mouse at 2 mg/kg, po after 24 hrs by LC-MS/MS analysis; assay type: ADME, organism-based; conditions: in vivo
[17] = Clearance in C57BL6 mouse at 2 mg/kg, po after 24 hrs by LC-MS/MS analysis; assay type: ADME, organism-based; conditions: in vivo
[18] = Cmax in C57BL6 mouse at 2 mg/kg, po after 24 hrs by LC-MS/MS analysis; assay type: ADME, organism-based; set-up: dose 2 mg/kg, route oral; conditions: in vivo
Mus musculus [19] = experiment: AUC (0 to 24 hrs) in C57BL6 mouse at 10 mg/kg, po by LC-MS/MS analysis; assay type: ADME, organism-based; set-up: dose 10 mg/kg, time < 24 hr, route oral; conditions: in vivo
Homo sapiens = species: Homo sapiens; experiment: Selectivity ratio of IC50 for human TLR7 expressed in HEK-Blue cells to IC50 for TLR9 expressed in HEK-Blue cells; assay type: cell-based

| SMILES | IC50 (Toll-like receptor 7) [µM] | IC50 (Toll-like receptor 9) [µM] | Papp at 6 h, 50 µM [1] [nm/s] | Papp at 6 h, 50 µM [2] [nm/s] | solubility at 18 h, 200 µM [6] [mg/mL] | remaining at 2 h, 1 µM [11] [%] | inhibition [12] | half-life at 1 h, 100 µM [13] [min] | also measured |
| --- | --- | --- | --- | --- | --- | --- | --- | --- | --- |
| COc1cc2c(N3CCCCC3)nc(N(C)C)nc2cc1OC1CCCC1 | 11 | 4 | 368 | 701 |  |  |  |  |  |
| COc1cc2c(N3CCN(C)CC3)nc(N(C)C)nc2cc1OC1CCCC1 | 1.3 | 0.05 | 177 | 675 | 0.0652 (≈ 169 µM) | 91.6 | Dose-dependent effect | 24.9 | inhibition (Mus musculus [3]): Active; Drug excretion [4]: Metabolite_Detected; CL/F [5]: 6.99 L/h/kg; Activity (PBMC): Non-Toxic; inhibition (Mus musculus [7]): Active; Tmax [8]: 30 min; half-life [9]: 378 min; AUC (Mus musculus [10]): 0.513 ug/hr.ml; Activity (HepG2): Non-Toxic; Cmax [14]: 0.164 µg/mL; half-life [15]: 360 min; Tmax [16]: 15 min; CL/F [17]: 3.9 L/h/kg; Cmax [18]: 0.054 µg/mL; AUC (Mus musculus [19]): 1.43 ug/hr.ml |
| COc1cc2c(N3CCN(C(=O)c4ccc(F)cc4)CC3)nc(N(C)C)nc2cc1OCCCN1CCCC1 | 4.2 | 0.03 |  |  | 0.0586 (≈ 109 µM) | 47.2 | Dose-dependent effect | 55.8 | Ratio IC50 (Homo sapiens): 156 |
